Results as given in EP4610269A1, “UROKINASE PLASMINOGEN ACTIVATOR SURFACE RECEPTOR (UPAR) LIGANDS FOR DIAGNOSTIC OR THERAPEUTIC USE” (3B Pharmaceuticals GmbH, priority 2024, dated 2025).
Like-named read-outs stand apart in the source and are kept apart here. Where a SMILES comes first, the peptide text is derived from it. Bridges are numbered along the chain shown (N, C = ends). [ ]: non-standard residue; d: D form. The star is where a group is joined. DOTA = O=C(O)CN1CCN(CC(=O)O)CCN(CC(=O)*)CCN(CC(=O)O)CC1; Hyp = O=C(O)[C@@H]1C[C@@H](O)CN1; hArg = N=C(N)NCCCC[C@H](N)C(=O)O; Cit = NC(=O)NCCC[C@H](N)C(=O)O; Butoxycarbonyl = CCCCOC(=O)*; Nva = CCC[C@H](N)C(=O)O; Hexanoyl = CCCCCC(=O)*; Pentanoyl = CCCCC(=O)*; AEEA = NCCOCCOCC(=O)O

Legend:
[1] = Plasma stability assay (mouse plasma); format: in vitro ADME; details: mouse plasma (sodium citrate 3.7%), 37°C, LC-MS quantification, read-out: % intact compound remaining after 6h incubation Mouse plasma
Protocol: In order to determine the stability of selected compounds of the invention in human and mouse plasma, a plasma stability assay was carried out. Such plasma stability assay measures degradation of compounds of the present invention in blood plasma. This is an important characteristic of a compound as compounds, with the exception of pro-drugs, which rapidly degrade in plasma, generally show poor in vivo efficacy. […] The stability is sufficient for the diagnostic, therapeutic and theragnostic use of these compounds according to the present invention.
The plasma stability samples were prepared by spiking 50 µl plasma aliquots (all sodium citrate 3.7%) with 1 µl of a 0.5 mM compound stock solution in DMSO. After vortexing the samples were incubated in a Thermomixer at 37°C for 0 and 6 hours. After incubation the samples were stored on ice until further treatment. All samples were prepared in duplicates.
A suitable internal standard was added to each sample (1 µl of a 0.5 mM stock solution in DMSO). Protein precipitation was performed using two different methods depending on the compound conditions as indicated in Table 13. • A) 250 µl of acetonitrile containing 1% trifluoroacetic acid was added. After incubation at room temperature for 30 min the precipitate was separated by centrifugation and 150 µl of the supernatant was diluted with 150 µl of 1% aqueous formic acid. • B) 150 µl of a zinc sulphate precipitation agent containing 78% 0.1 M zinc sulphate and 22% acetonitrile was added. After incubation at room temperature for 30 min the precipitate was separated by centrifugation. To 100 µl of the supernatant 10 µl of 1% formic acid was added followed by further incubation at 60°C for 10 min to complete the formation of the zinc chelate, if the compound contains a free DOTA moiety.
The determination of the analyte in the clean sample solutions was performed on an Agilent 1290 UHPLC system coupled to an Agilent 6530 Q-TOF mass spectrometer. The chromatographic separation was carried out on a Phenomenex BioZen XB-C18 HPLC column (50 x 2 mm, 1.7 µm particle size).
Two different elution gradients were applied using a mixture of 0.1% formic acid in water as eluent A and acetonitrile as eluent B: • A) 2% B to 41% in 7 min, 800 µl/min, 40°C. • B) 5% B to 50% B in 6 min, 800 µL/min, 40°C.
Mass spectrometric detection was performed in positive ion ESI mode by scanning the mass range from m/z 50 to 3000 with a sampling rate of 2 / sec.
From the mass spectrometric raw data the ion currents for the double or triple charged monoisotopic signal was extracted for both, the compound and the internal standard.
Quantitation was performed by external matrix calibration with internal standard using the integrated analyte signals.
Additionally, recovery was determined by spiking a pure plasma sample that only contained the internal standard after treatment with a certain amount of the compound.
Carry-over was evaluated by analysis of a blank sample (20% acetonitrile) after the highest calibration sample.
The result is stated as "% intact compound remaining after 6 h incubation" and means that from the amount of material at the start of the experiment the stated percentage is detected as unchanged material at the end of the experiment by LC-MS quantification. Since all compounds are more than 50% intact after 6 h they are considered as stable enough for diagnostic and therapeutic applications. Table 13: Results of the plasma stability assay

[2] = biological target: T1, uPAR-expressing HEC-265 human endometrial adenocarcinoma cells (Homo sapiens, UniProt Q03405); test: Competitive FACS binding assay; details: pIC50 category of FACS binding
T1 construct: Cell surface uPAR-expressing HEC-265 human endometrial adenocarcinoma cells; host or cells: HEC-265
Outline: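 HEC-265 cells incubated 1 h at 4 °C with 10 nM biotinylated uPAR peptide tracer plus increasing test compound, then stained with APC-streptavidin on ice. Median APC fluorescence by flow cytometry; 4PL fit gives pIC50.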

human uPAR (uPAR-Fc) = biological target: T2, human uPAR (uPAR-Fc) (Homo sapiens, UniProt Q03405); test: Surface plasmon resonance (SPR) assay, single cycle kinetics; format: binding; details: pKD category for uPAR SPR activity assay, uPAR-Fc on Protein A-Chip, 25°C, read-out: pKD CAT (converted)
T2 construct: comprising amino acids Leu23-Arg303 according to UniProt entry Q03405.1; purchased R&D Systems 10378-UK-100
Outline: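 uPAR-Fc (Leu23-Arg303 extracellular domains, human IgG1 Fc) captured on Protein A chip to ~2000 RU; single-cycle kinetics at 25°C in HEPES running buffer pH 7.4 with 0.1% DMSO. KD from double-referenced sensorgrams fitted to 1:1 Langmuir model, reported as pKD.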

T1 sequence (Q03405 23-335): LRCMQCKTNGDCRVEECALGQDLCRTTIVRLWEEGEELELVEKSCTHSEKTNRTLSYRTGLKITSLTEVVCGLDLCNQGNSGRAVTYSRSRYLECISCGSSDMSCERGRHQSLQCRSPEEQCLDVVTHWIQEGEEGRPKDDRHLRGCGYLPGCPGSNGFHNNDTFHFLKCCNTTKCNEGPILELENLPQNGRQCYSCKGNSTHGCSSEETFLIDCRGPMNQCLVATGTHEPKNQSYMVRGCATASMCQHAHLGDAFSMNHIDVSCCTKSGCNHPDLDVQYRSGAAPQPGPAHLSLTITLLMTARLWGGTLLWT
T2 sequence (Q03405 23-303): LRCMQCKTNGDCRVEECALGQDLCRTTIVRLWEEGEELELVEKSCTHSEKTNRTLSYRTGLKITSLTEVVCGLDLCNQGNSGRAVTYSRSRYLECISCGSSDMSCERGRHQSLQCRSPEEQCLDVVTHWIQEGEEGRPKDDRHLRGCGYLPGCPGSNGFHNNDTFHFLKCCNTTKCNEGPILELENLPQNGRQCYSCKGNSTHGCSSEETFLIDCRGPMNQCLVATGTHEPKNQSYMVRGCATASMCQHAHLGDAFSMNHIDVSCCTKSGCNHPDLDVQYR

Compound | remaining at 6 h, 9.8 µM [1] | IC50 [2] | Kd (human uPAR (uPAR-Fc)) | Kd (human uPAR (uPAR-Fc); single cycle kinetics)
CC[C@H](C)[C@@H]1NC(=O)[C@@H](C)NC(=O)[C@@H]2CCCN2C(=O)[C@H](Cc2ccccc2)NC(=O)[C@H](Cc2ccc(O)cc2)NC(=O)[C@H](CCC(N)=O)NC(=O)[C@@H](C)NC(=O)[C@@H](NC(=O)[C@H](CC(C)C)NC(=O)COCCOCCNC(=O)CN2CCN(CC(=O)O)CCN(CC(=O)O)CCN(CC(=O)O)CC2)CSSC[C@@H](C(N)=O)NC(=O)[C@H](CC(C)C)NC1=O [UPAR-216, DOTA-O2Oc-Leu-[Cys-ala-Gln-Tyr-Phe-Pro-ala-Ile-Leu-Cys]-NH2] ({DOTA-AEEA}-LC[dA]QYFP[dA]ILC-NH2; disulfide 2-11) | 84% | ≥ 126 nM | > 100 nM | –
CCCCOC(=O)N[C@H]1CSSC[C@@H](C(N)=O)NC(=O)[C@H](CCC)NC(=O)[C@H]([C@@H](C)CC)NC(=O)[C@@H]2C[C@@H](O)CN2C(=O)[C@@H]2CCCN2C(=O)[C@H](Cc2ccccc2)NC(=O)[C@H](Cc2ccc(O)cc2)NC(=O)[C@H](CCCCNC(=O)CN2CCN(CC(=O)O)CCN(CC(=O)O)CCN(CC(=O)O)CC2)NC(=O)[C@H](CCCNC(N)=O)NC1=O [UPAR-275, Butoc-[Cys-Cit-Lys(DOTA)-Tyr-Phe-Pro-Hyp-Ile-Nva-Cys]-NH2] (Butoxycarbonyl-C[Cit]K(DOTA)YFP[Hyp]I[Nva]C-NH2; disulfide 1-10) | 70% | ≤ 10 nM | < 1.58 nM | –
CCCCCC(=O)N[C@@H](CC(=O)O)C(=O)N[C@@H](CC(C)C)C(=O)N[C@H]1CSSC[C@@H](C(N)=O)NC(=O)[C@H](CC(C)C)NC(=O)[C@H]([C@@H](C)CC)NC(=O)[C@H](CCCCNC(=O)CN2CCN(CC(=O)O)CCN(CC(=O)O)CCN(CC(=O)O)CC2)NC(=O)[C@@H]2CCCN2C(=O)[C@H](Cc2ccccc2)NC(=O)[C@H](Cc2ccc(O)cc2)NC(=O)[C@H](CCSC)NC(=O)[C@H](CCCNC(=N)N)NC1=O [UPAR-351, Hex-Asp-Leu-[Cys-Arg-Met-Tyr-Phe-Pro-Lys(DOTA)-Ile-Leu-Cys]-NH2] (Hexanoyl-DLCRMYFPK(DOTA)ILC-NH2; disulfide 3-12) | > 95% | ≤ 10 nM | – | < 1.58 nM
CCCCC(=O)N[C@H]1CSSC[C@@H](C(N)=O)NC(=O)[C@H](CCC)NC(=O)[C@H]([C@@H](C)CC)NC(=O)[C@@H]2C[C@@H](O)CN2C(=O)[C@@H]2CCCN2C(=O)[C@H](Cc2ccccc2)NC(=O)[C@H](Cc2ccc(O)cc2)NC(=O)[C@H](CCCCNC(=O)CN2CCN(CC(=O)O)CCN(CC(=O)O)CCN(CC(=O)O)CC2)NC(=O)[C@H](CCCCNC(=N)N)NC1=O [UPAR-278, Pent-[Cys-Har-Lys(DOTA)-Tyr-Phe-Pro-Hyp-Ile-Nva-Cys]-NH2] (Pentanoyl-C[hArg]K(DOTA)YFP[Hyp]I[Nva]C-NH2; disulfide 1-10) | 87% | ≤ 10 nM | < 1.58 nM | –
